Holding throughout (format): functional
In one experiment the test system is CCRF-CEM. Nature of the experiment: Cytotoxic activity against human CEM.CM3 cell line was measured after 72 hr using MTT assay. The conditions noted are these: Homo sapiens, CCRF-CEM, 72 h; read-out: ED50 (the source's name).
The subject of a further experiment is BRISTOL8. Nature of the experiment: Cytotoxic activity against human BRISTOL8 cell line was measured after 72 hr using MTT assay. The conditions noted are these: Homo sapiens, BRISTOL8, 72 h; read-out: ED50 (the source's name). For orientation: Formazan colour is commonly taken as a measure of viable cells.
A further experiment has as its system PA-1. Nature of the experiment: Cytotoxic activity against human PA-1 cell line was measured after 72 hr using MTT assay. The conditions noted are these: Homo sapiens, PA-1, 72 h; read-out: ED50 (the source's name).
In another experiment the test system is MOLT-4. The experiment can be described thus: Cytotoxic activity against human MOLT-4 cell line was measured after 72 hr using MTT assay. The note with it: Homo sapiens, MOLT-4, 72 h; read-out: ED50 (the source's name).
A further experiment has as its system L132. The experiment can be described thus: Cytotoxic activity against human L132 cell line was measured after 72 hr using MTT assay. The conditions noted are these: L132, 72 h, read-out: ED50 (the source's name).
Another experiment has as its system DU-145. Nature of the experiment: Cytotoxic activity against human DU145 cell line was measured after 72 hr using MTT assay. The conditions noted are these: for EC50: Homo sapiens, DU-145, 72 h, read-out: ED50 (the source's name).
In the next experiment the test system is A549. The experiment can be described thus: Cytotoxic activity against human A549 cell line was measured after 72 hr using MTT assay. The note with it: A549, 72 h, read-out: ED50 (the source's name).
The test system of a further experiment is Jurkat. Nature of the experiment: Cytotoxic activity against human JurkatE6.1 cell line was measured after 72 h using MTT assay. The conditions noted are these: for EC50: Homo sapiens, Jurkat, 72 h, read-out: ED50 (the source's name).
Another experiment relates to U-937. The experiment can be described thus: Cytotoxic activity against human U937 cell line was measured after 72 hr using MTT assay. The note with it: Homo sapiens, U-937, 72 h; read-out: ED50 (the source's name).

Converted amounts (≈) assume the structure as drawn. A value given as a limit tells only on which side of the number the result lay.

With `COC(=O)CCOC(=O)[C@]12CC[C@@H](C(C)C)C1C1CCC3[C@@]4(C)CC(Br)C(=O)C(C)(C)C4CC[C@@]3(C)[C@]1(C)CC2` (stereo partly drawn), the EC50 is 1.9 µg/mL (≈ 3.06 µM) in the experiment with CCRF-CEM; 2.3 µg/mL (≈ 3.7 µM) with BRISTOL8; 4.8 µg/mL (≈ 7.72 µM) with PA-1; 1.2 µg/mL (≈ 1.93 µM) with MOLT-4; over 10 µg/mL with L132; 6.6 µg/mL (≈ 10.6 µM) with DU-145. In addition, the results for the EC50 in the experiment with A549, with Jurkat and in the experiment with U-937 were over 10 µg/mL, 1.9 µg/mL (≈ 3.06 µM) and 1.2 µg/mL (≈ 1.93 µM), respectively.
On to `C=C(C)[C@@H]1CC[C@]2(C(=O)CC(=O)OC)CC[C@]3(C)C(CCC4[C@@]5(C)CC[C@H](O)C(C)(C)C5CC[C@]43C)C12` (stereo partly drawn), for which the EC50 in the experiment on CCRF-CEM was 6.4 µg/mL (≈ 12.5 µM); in the experiment on BRISTOL8, 4.5 µg/mL (≈ 8.78 µM); with PA-1, 7.1 µg/mL (≈ 13.8 µM); in the experiment on MOLT-4, 3.9 µg/mL (≈ 7.61 µM); in the experiment on L132, over 10 µg/mL; in the experiment on DU-145, 2.9 µg/mL (≈ 5.66 µM). Moreover, the EC50 in the experiment on A549 was over 10 µg/mL; in the experiment on Jurkat, 7.4 µg/mL (≈ 14.4 µM); in the experiment on U-937, over 10 µg/mL.
With `COC(=O)COC(=O)[C@]12CC[C@@H](C(C)C)C1C1CCC3[C@@]4(C)CC(Br)C(=O)C(C)(C)C4CC[C@@]3(C)[C@]1(C)CC2` (stereo partly drawn), the EC50 was 2.1 µg/mL (≈ 3.46 µM) with CCRF-CEM; 3.4 µg/mL (≈ 5.6 µM) in the experiment on BRISTOL8; 3.2 µg/mL (≈ 5.27 µM) in the experiment with PA-1; 1.7 µg/mL (≈ 2.8 µM) in the experiment with MOLT-4; over 10 µg/mL in the experiment on L132; 6.8 µg/mL (≈ 11.2 µM) in the experiment on DU-145. For the same compound, the EC50 in the experiment with A549 is over 10 µg/mL; in the experiment with Jurkat it was 2.8 µg/mL (≈ 4.61 µM); in the experiment on U-937 it was 1.1 µg/mL (≈ 1.81 µM).
With `C=C(C)[C@@H]1CC[C@]2(C(=O)OCC(=O)OC)CC[C@]3(C)C(CCC4[C@@]5(C)CC[C@H](O)C(C)(C)C5CC[C@]43C)C12` (stereo in doubt; 3), the EC50 was 3.2 µg/mL (≈ 6.05 µM) in the experiment on CCRF-CEM; 5.3 µg/mL (≈ 10 µM) in the experiment with BRISTOL8; 5.9 µg/mL (≈ 11.2 µM) with PA-1; 4 µg/mL (≈ 7.56 µM) with MOLT-4; over 10 µg/mL in the experiment on L132; over 10 µg/mL in the experiment on A549. Moreover, the EC50 in the experiment with U-937 is over 10 µg/mL. For the same compound, the ED50 in the experiment on DU-145 was over 10 µg/mL; in the experiment on Jurkat, 1.4 µg/mL (≈ 2.65 µM).
Turning to `C=C(C)[C@@H]1CC[C@]2(C(=O)O)CC[C@]3(C)[C@H](CC[C@@H]4[C@@]5(C)CC[C@H](O)C(C)(C)[C@@H]5CC[C@]43C)[C@@H]12` [BETULINIC ACID], the EC50 in the experiment on CCRF-CEM is 0.98 µg/mL (≈ 2.15 µM); in the experiment with BRISTOL8 it was 0.84 µg/mL (≈ 1.84 µM); in the experiment with PA-1, over 10 µg/mL; in the experiment with MOLT-4 it was 1.23 µg/mL (≈ 2.69 µM); with L132, 1.3 µg/mL (≈ 2.85 µM); with DU-145, 1.13 µg/mL (≈ 2.47 µM). Besides, the EC50 in the experiment with A549 was over 10 µg/mL; with Jurkat, 0.65 µg/mL (≈ 1.42 µM); in the experiment on U-937 it was 0.69 µg/mL (≈ 1.51 µM).
As to `C=C(C)[C@@H]1CC[C@]2(C(=O)O)CC[C@]3(C)[C@H](CC[C@@H]4[C@@]5(C)CCC(=O)C(C)(C)[C@@H]5CC[C@]43C)[C@@H]12` [BETUNOLIC ACID], the EC50 in the experiment on CCRF-CEM is 4.4 µg/mL (≈ 9.68 µM); with BRISTOL8, 2.6 µg/mL (≈ 5.72 µM); in the experiment on PA-1 it was 1.2 µg/mL (≈ 2.64 µM); in the experiment with MOLT-4, 1.2 µg/mL (≈ 2.64 µM); in the experiment on L132, over 10 µg/mL; in the experiment with DU-145, 3.1 µg/mL (≈ 6.82 µM). Moreover, the EC50 in the experiment with A549 is over 10 µg/mL; in the experiment with Jurkat it was 0.4 µg/mL (≈ 0.88 µM); in the experiment on U-937, 2.8 µg/mL (≈ 6.16 µM).
As for `CC(C)[C@@H]1CC[C@]2(C(=O)O)CC[C@]3(C)C(CCC4[C@@]5(C)CC[C@H](O)C(C)(C)C5CC[C@]43C)C12` (stereo partly drawn) [DIHYDROBETULINIC ACID], the EC50 with CCRF-CEM stood at 1.3 µg/mL (≈ 2.83 µM); in the experiment on BRISTOL8, 4.4 µg/mL (≈ 9.59 µM); with PA-1 it was 0.7 µg/mL (≈ 1.53 µM); in the experiment with MOLT-4 it was 0.6 µg/mL (≈ 1.31 µM); in the experiment with L132, 2.4 µg/mL (≈ 5.23 µM); in the experiment with DU-145, 0.7 µg/mL (≈ 1.53 µM). The EC50 with A549 amounted to 2.2 µg/mL (≈ 4.8 µM); in the experiment with Jurkat, 4.9 µg/mL (≈ 10.7 µM); with U-937 it was 0.9 µg/mL (≈ 1.96 µM).

The record behind these values is ChEMBL document CHEMBL1138817, “Synthesis and cytotoxic activity of 3-O-acyl/3-hydrazine /2-bromo/20,29-dibromo betulinic acid derivatives” (2004).
